Data published in patent US11666558B2, “Methods of treating intraocular pressure with activators of Tie-2” (EyePoint Pharmaceuticals, Inc., priority 2015, dated 2023).
Like-named read-outs stand apart in the source and are kept apart here.

Assay: Ocular tissue concentrations (aqueous humor, vitreous humor, iris, retina, choroid, cornea) after topical ocular, subcutaneous and intravitreal administration
Format: in vivo, New Zealand White rabbits
Conditions: for Cornea Conc. (ng/mL) OS: Cornea homogenate; for Cornea Conc. (ng/mL) OS / concentration at 0.5 h / concentration at 1 h / concentration at 2 h / concentration at 4 h: subcutaneous 5 mg/kg/dose; for concentration at 6 hr / concentration at 24 hr / concentration at 48 hr / concentration at 72 hr / concentration at 0.5 h / concentration at 1 h / concentration at 2 h / concentration at 4 h: New Zealand White, rabbit; for concentration at 6 hr / concentration at 24 hr / concentration at 48 hr / concentration at 72 hr: other: intravitreal, 2.5 mg/eye; for concentration at 0.5 h / concentration at 1 h / concentration at 2 h / concentration at 4 h: subcutaneous, 5 mg/kg/dose
Description: To measure the concentration of Compound 1 in plasma and ocular tissues following topical ocular, subcutaneous, and intravitreal administration, New Zealand White rabbits were administered Compound 1, and plasma and ocular samples were collected at pre-determined time points. Compound 1 formulations were prepared fresh on each day of dosing.
Ocular tissue samples from both eyes of each animal were collected and weights were recorded. Plasma and ocular tissue sample concentrations of Compound 1 were determined by LC-MS/MS.
New Zealand White rabbits weighing 2.5 to 3.5 kg were used on this study. Rabbits were housed one per cage. Animals were not fasted and only healthy animals with no ocular illness were used. Two rabbits per group were sacrificed at each of four ocular tissue sampling time points for a total of eight rabbits per group.
Animals were anesthetized for ocular (topical) and intravitreal dosing following the 12IA7 IACUC protocol. Each rabbit received a bolus dose of test formulation either via topical ocular administration 3 times daily on Days 1 and 2 (at 0, 6, and 12 hours), and once on Day 3 (at 0 hours) into both eyes; via intravitreal administration into both eyes once on Day 1 (at 0 hours); or via subcutaneous administration 2 times daily on Days 1 and 2 (at 0 and 8 hours) and once daily on Day 3 (at 0 hours). Doses were given within an approximately 1 hour window each day where applicable.
On Day 1, for intravitreal administration, or on Day 3, for topical ocular and subcutaneous administration, at the appropriate ocular tissue collection time points, animals were euthanized and both eyes were enucleated immediately. Following enucleation, each eye was rinsed with phosphate-buffered saline. Ocular tissue samples from both eyes of each animal were collected at predetermined time points and weights were recorded. All the samples were frozen immediately on dry ice, and stored at −60° C. to −80° C. pending bioanalysis.
An LC-MS/MS method was developed for the determination of Compound 1 in rabbit aqueous tissues (plasma, aqueous and vitreous humor) and solid ocular tissue samples. A pre-study standard curve was analyzed to determine the specificity, range, and lower limit of quantitation of the method. Plasma and tissue homogenate study samples were extracted and analyzed. All the samples were treated identically to the standards.
One eight-point standard curve was used in each analytical batch. To be accepted, each batch must have had at least five of eight standards with accuracy within ±20% of nominal, except at the lower limit of quantification (LLOQ), where ±25% was acceptable.
Concentration versus time data is plotted in FIGS. 3-16. All data are expressed as ng/g of the free drug. Samples that were below the limit of quantitation (0.2 ng/mL) were not used in the calculation of averages.

[1] = choroid homogenate, Choroid homogenate, left eye, intravitreal 2.5 mg/eye (group 5), individual animals, read-out: Conc. (ng/mL) OS
[2] = choroid homogenate, Choroid homogenate, OD, sodium salt, intravitreal 2.5 mg/eye, Group 4, read-out: Choroid Conc. (ng/mL) OD
[3] = choroid homogenate, Choroid homogenate, OS, sodium salt, intravitreal 2.5 mg/eye, Group 4, read-out: Choroid Conc. (ng/mL) OS
[4] = choroid homogenate, Choroid homogenate, right eye, intravitreal 2.5 mg/eye (group 5), individual animals, read-out: Conc. (ng/mL) OD
[5] = choroid homogenate, Choroid homogenate, OD, sodium salt, Group 2, read-out: Choroid Conc. (ng/mL) OD
[6] = choroid homogenate, Choroid homogenate, OS, sodium salt, Group 2, read-out: Choroid Conc. (ng/mL) OS
[7] = choroid, Choroid, OD, sodium salt, intravitreal 2.5 mg/eye, Group 4, read-out: Choroid Conc. (ng/g) OD
[8] = choroid, Choroid, OS, sodium salt, intravitreal 2.5 mg/eye, Group 4, read-out: Choroid Conc. (ng/g) OS
[9] = choroid, Choroid, average, intravitreal 2.5 mg/eye (group 5), read-out: Avg.
[10] = choroid, Choroid, left eye, intravitreal 2.5 mg/eye (group 5), individual animals, read-out: Conc. (ng/g) OS
[11] = choroid, Choroid, sodium salt, intravitreal 2.5 mg/eye, Group 4, read-out: Choroid Avg.
[12] = choroid, Choroid, right eye, intravitreal 2.5 mg/eye (group 5), individual animals, read-out: Conc. (ng/g) OD
[13] = choroid, Choroid, OD, sodium salt, Group 2, read-out: Choroid Conc. (ng/g) OD
[14] = choroid, Choroid, OS, sodium salt, Group 2, read-out: Choroid Conc. (ng/g) OS
[15] = choroid, Choroid, free acid, Group 3, read-out: Choroid Average
[16] = choroid, Choroid, sodium salt, Group 2, read-out: Choroid Average

concentration at 6 hr [1]: 63400 ng/mL
concentration at 24 hr [2]: 11800 ng/mL
concentration at 24 hr [3]: 9890 ng/mL
concentration at 24 hr [1]: 28400 ng/mL
concentration at 48 hr [2]: 3480 ng/mL
concentration at 48 hr [3]: 3740 ng/mL
concentration at 48 hr [1]: 9320 ng/mL
concentration at 48 hr [4]: 9940 ng/mL
concentration at 72 hr [3]: 282 ng/mL
concentration at 72 hr [1]: 2660 ng/mL
concentration at 72 hr [4]: 2180 ng/mL
concentration at 0.5 h [5]: 24 ng/mL
concentration at 0.5 h (choroid homogenate, Choroid homogenate, OS, free acid, Group 3, read-out: Choroid Conc. (ng/mL) OS): 7.55 ng/mL
concentration at 0.5 h [6]: 25.6 ng/mL
concentration at 1 h (choroid homogenate, Choroid homogenate, 1 hr, OD, free acid, Group 3, read-out: Choroid Conc. (ng/mL) OD): 6.04 ng/mL
concentration at 1 h (choroid homogenate, Choroid homogenate, 1 hr, OD, sodium salt, Group 2, read-out: Choroid Conc. (ng/mL) OD): 29.1 ng/mL
concentration at 1 h (choroid homogenate, Choroid homogenate, 1 hr, OS, free acid, Group 3, read-out: Choroid Conc. (ng/mL) OS): 8.01 ng/mL
concentration at 1 h (choroid homogenate, Choroid homogenate, 1 hr, OS, sodium salt, Group 2, read-out: Choroid Conc. (ng/mL) OS): 13.1 ng/mL
concentration at 2 h (choroid homogenate, Choroid homogenate, 2 hr, OD, free acid, Group 3, read-out: Choroid Conc. (ng/mL) OD): 3.32 ng/mL
concentration at 2 h (choroid homogenate, Choroid homogenate, 2 hr, OS, free acid, Group 3, read-out: Choroid Conc. (ng/mL) OS): 4.84 ng/mL
concentration at 4 h (choroid homogenate, Choroid homogenate, OD, free acid, Group 3, read-out: Choroid Conc. (ng/mL) OD): 4.82 ng/mL
concentration at 4 h [5]: 1.7 ng/mL
concentration at 4 h [6]: 1.22 ng/mL
concentration at 0.5 h (choroid homogenate, TABLE 16: Choroid homogenate, OS, free acid, Group 3, read-out: Choroid Conc. (ng/mL) OS): 7.55 ng/mL
concentration at 1 h (choroid homogenate, TABLE 16: Choroid homogenate, 1 hr, OD, free acid, Group 3, read-out: Choroid Conc. (ng/mL) OD): 6.04 ng/mL
concentration at 1 h (choroid homogenate, TABLE 16: Choroid homogenate, 1 hr, OS, free acid, Group 3, read-out: Choroid Conc. (ng/mL) OS): 8.01 ng/mL
concentration at 2 h (choroid homogenate, TABLE 16: Choroid homogenate, 2 hr, OD, free acid, Group 3, read-out: Choroid Conc. (ng/mL) OD): 3.32 ng/mL
concentration at 2 h (choroid homogenate, TABLE 16: Choroid homogenate, 2 hr, OS, free acid, Group 3, read-out: Choroid Conc. (ng/mL) OS): 4.84 ng/mL
concentration at 4 h (choroid homogenate, TABLE 16: Choroid homogenate, OD, free acid, Group 3, read-out: Choroid Conc. (ng/mL) OD): 4.82 ng/mL
concentration at 6 hr [7]: 346000 ng/g
concentration at 6 hr [8]: 484000 ng/g
concentration at 6 hr [9]: 664000 ng/g
concentration at 6 hr [10]: 697000 ng/g
concentration at 6 hr [11]: 947000 ng/g
concentration at 24 hr [7]: 130000 ng/g
concentration at 24 hr [8]: 109000 ng/g
concentration at 24 hr [9]: 398000 ng/g
concentration at 24 hr [10]: 312000 ng/g
concentration at 24 hr [11]: 139000 ng/g
concentration at 48 hr [7]: 38300 ng/g
concentration at 48 hr [8]: 41100 ng/g
concentration at 48 hr [9]: 120000 ng/g
concentration at 48 hr [10]: 103000 ng/g
concentration at 48 hr [12]: 109000 ng/g
concentration at 48 hr [11]: 38600 ng/g
concentration at 72 hr [8]: 3100 ng/g
concentration at 72 hr [9]: 27600 ng/g
concentration at 72 hr [10]: 29300 ng/g
concentration at 72 hr [12]: 24000 ng/g
concentration at 72 hr [11]: 2720 ng/g
concentration at 0.5 h [13]: 264 ng/g
concentration at 0.5 h (choroid, Choroid, OS, free acid, Group 3, read-out: Choroid Conc. (ng/g) OS): 83.1 ng/g
concentration at 0.5 h [14]: 282 ng/g
concentration at 0.5 h [15]: 127 ng/g
concentration at 0.5 h [16]: 266 ng/g
concentration at 1 h (choroid, Choroid, 1 hr, OD, free acid, Group 3, read-out: Choroid Conc. (ng/g) OD): 66.4 ng/g
concentration at 1 h (choroid, Choroid, 1 hr, OD, sodium salt, Group 2, read-out: Choroid Conc. (ng/g) OD): 320 ng/g
concentration at 1 h (choroid, Choroid, 1 hr, OS, free acid, Group 3, read-out: Choroid Conc. (ng/g) OS): 88.1 ng/g
concentration at 1 h (choroid, Choroid, 1 hr, OS, sodium salt, Group 2, read-out: Choroid Conc. (ng/g) OS): 144 ng/g
concentration at 1 h (choroid, Choroid, 1 hr, free acid, Group 3, read-out: Choroid Average): 83.3 ng/g
concentration at 1 h (choroid, Choroid, 1 hr, sodium salt, Group 2, read-out: Choroid Average): 200 ng/g
concentration at 2 h (choroid, Choroid, 2 hr, OD, free acid, Group 3, read-out: Choroid Conc. (ng/g) OD): 36.5 ng/g
concentration at 2 h (choroid, Choroid, 2 hr, OS, free acid, Group 3, read-out: Choroid Conc. (ng/g) OS): 53.2 ng/g
concentration at 2 h (choroid, Choroid, 2 hr, free acid, Group 3, read-out: Choroid Average): 47.7 ng/g
concentration at 2 h (choroid, Choroid, 2 hr, sodium salt, Group 2, read-out: Choroid Average): 68.8 ng/g
concentration at 4 h (choroid, Choroid, OD, free acid, Group 3, read-out: Choroid Conc. (ng/g) OD): 53 ng/g
concentration at 4 h [13]: 18.7 ng/g
concentration at 4 h [14]: 13.4 ng/g
concentration at 4 h [15]: 61 ng/g
concentration at 4 h [16]: 15.5 ng/g
concentration at 0.5 h (choroid, TABLE 16: Choroid, OS, free acid, Group 3, read-out: Choroid Conc. (ng/g) OS): 83.1 ng/g
concentration at 0.5 h (choroid, TABLE 16: Choroid, free acid, Group 3, read-out: Choroid Average): 127 ng/g
concentration at 1 h (choroid, TABLE 16: Choroid, 1 hr, OD, free acid, Group 3, read-out: Choroid Conc. (ng/g) OD): 66.4 ng/g
concentration at 1 h (choroid, TABLE 16: Choroid, 1 hr, OS, free acid, Group 3, read-out: Choroid Conc. (ng/g) OS): 88.1 ng/g
concentration at 1 h (choroid, TABLE 16: Choroid, 1 hr, free acid, Group 3, read-out: Choroid Average): 83.3 ng/g
concentration at 2 h (choroid, TABLE 16: Choroid, 2 hr, OD, free acid, Group 3, read-out: Choroid Conc. (ng/g) OD): 36.5 ng/g
Structure (SMILES): COC(=O)N[C@@H](Cc1ccccc1)C(=O)N[C@@H](Cc1ccc(NS(=O)(=O)O)cc1)c1csc(-c2cccs2)n1 [Compound 1]
Cornea Conc. (ng/mL) OS (1 hr, OS, free acid, Group 3): BLOQ (Below the limit of quantitation (0.5 ng/mL))
Cornea Conc. (ng/mL) OS (2 hr, OS, free acid, Group 3): BLOQ (Below the limit of quantitation (0.5 ng/mL))
